Experiments:
Experiment in all cases: NCI-60 SRB cytotoxicity screen
Format in all cases: cell-based
CCRF-CEM (leukemia) = settings: Homo sapiens, single dose 10 μM, read-out: growth inhibition (GI%)
K-562 (leukemia) = settings: Homo sapiens; K-652 [sic], single dose 10 μM; read-out: growth inhibition (GI%)
MOLT-4 (leukemia) = settings: Homo sapiens; MOLT-4, single dose 10 μM; read-out: growth inhibition (GI%)
RPMI-8226 (leukemia) = settings: Homo sapiens; RPMI-8226, single dose 10 μM; read-out: growth inhibition (GI%)
[1] = tested on: A549/ATCC (non-small cell lung cancer); settings: Homo sapiens, single dose 10 μM, read-out: growth inhibition (GI%)
[2] = tested on: HOP-62 (non-small cell lung cancer); settings: Homo sapiens; HOP-62, single dose 10 μM; read-out: growth inhibition (GI%)
[3] = tested on: HOP-92 (non-small cell lung cancer); settings: Homo sapiens; HOP-92, single dose 10 μM; read-out: growth inhibition (GI%)
[4] = tested on: NCI-H226 (non-small cell lung cancer); settings: NCI-H226, single dose 10 μM; for inhibition at 10 µM: Homo sapiens, read-out: growth inhibition (GI%)
[5] = tested on: NCI-H522 (non-small cell lung cancer); settings: Homo sapiens; NCI-H522, single dose 10 μM; read-out: growth inhibition (GI%)
COLO 205 (colon cancer) = settings: Homo sapiens; COLO 205, single dose 10 μM; read-out: growth inhibition (GI%)
HCC-2998 (colon cancer) = settings: Homo sapiens; HCC-2998, single dose 10 μM; read-out: growth inhibition (GI%)
SW-620 (colon cancer) = settings: Homo sapiens; SW-620, single dose 10 μM; read-out: growth inhibition (GI%)
SF-268 (CNS cancer) = settings: Homo sapiens; SF-268, single dose 10 μM; read-out: growth inhibition (GI%)
SF-295 (CNS cancer) = settings: Homo sapiens; SF-295, single dose 10 μM; read-out: growth inhibition (GI%)
SNB-19 (CNS cancer) = settings: Homo sapiens; SNB-19, single dose 10 μM; read-out: growth inhibition (GI%)
SNB-75 (CNS cancer) = settings: Homo sapiens, SNB-75, SNB-75, single dose 10 μM; read-out: growth inhibition (GI%)
U251 (CNS cancer) = settings: Homo sapiens, U-251; U251, single dose 10 μM; read-out: growth inhibition (GI%)
LOX IMVI (melanoma) = settings: Homo sapiens, single dose 10 μM, read-out: growth inhibition (GI%)
MALME-3M (melanoma) = settings: Homo sapiens, single dose 10 μM, read-out: growth inhibition (GI%)
M14 (melanoma) = settings: Homo sapiens; M14, single dose 10 μM; read-out: growth inhibition (GI%)
MDA-MB-435 (melanoma) = settings: Homo sapiens, MDA-MB-435, read-out: growth inhibition (GI%)
SK-MEL-2 (melanoma) = settings: Homo sapiens; SK-MEL-2, single dose 10 μM; read-out: growth inhibition (GI%)
SK-MEL-5 (melanoma) = settings: Homo sapiens; SK-MEL-5, single dose 10 μM; read-out: growth inhibition (GI%)
OVCAR-3 (ovarian cancer) = settings: Homo sapiens; OVCAR-3, single dose 10 μM; read-out: growth inhibition (GI%)
OVCAR-5 (ovarian cancer) = settings: Homo sapiens; OVCAR-5, single dose 10 μM; read-out: growth inhibition (GI%)
OVCAR-8 (ovarian cancer) = settings: Homo sapiens; OVCAR-8, single dose 10 μM; read-out: growth inhibition (GI%)
[6] = tested on: NCI/ADR-RES (ovarian cancer); settings: Homo sapiens, single dose 10 μM, read-out: growth inhibition (GI%)
786-0 (renal cancer) = settings: Homo sapiens; 786-0, single dose 10 μM; read-out: growth inhibition (GI%)
ACHN (renal cancer) = settings: Homo sapiens, single dose 10 μM, read-out: growth inhibition (GI%)
RXF 393 (renal cancer) = settings: Homo sapiens; RXF 393, single dose 10 μM; read-out: growth inhibition (GI%)
SN12C (renal cancer) = settings: Homo sapiens, single dose 10 μM, read-out: growth inhibition (GI%)
[7] = tested on: MDA-MB-231/ATCC (breast cancer); settings: Homo sapiens, MDA-MB-231, read-out: growth inhibition (GI%)
HS 578T (breast cancer) = settings: Homo sapiens, single dose 10 μM, read-out: growth inhibition (GI%)
BT-549 (breast cancer) = settings: Homo sapiens; BT-549, single dose 10 μM; read-out: growth inhibition (GI%)

SMILES | inhibition at 10 µM (CCRF-CEM (leukemia)) | inhibition at 10 µM (K-562 (leukemia)) | inhibition at 10 µM (MOLT-4 (leukemia)) | inhibition at 10 µM (RPMI-8226 (leukemia)) | inhibition at 10 µM [1] | inhibition at 10 µM [2] | inhibition at 10 µM [3] | inhibition at 10 µM [4] | inhibition at 10 µM [5] | inhibition at 10 µM (COLO 205 (colon cancer)) | inhibition at 10 µM (HCC-2998 (colon cancer)) | inhibition at 10 µM (SW-620 (colon cancer)) | inhibition at 10 µM (SF-268 (CNS cancer)) | inhibition at 10 µM (SF-295 (CNS cancer)) | inhibition at 10 µM (SNB-19 (CNS cancer)) | inhibition at 10 µM (SNB-75 (CNS cancer)) | inhibition at 10 µM (U251 (CNS cancer)) | inhibition at 10 µM (LOX IMVI (melanoma)) | inhibition at 10 µM (MALME-3M (melanoma)) | inhibition at 10 µM (M14 (melanoma)) | also measured
CCc1cccc2cc(C=CC(=O)c3ccc(OC)cc3)c(Cl)nc12 [Compound 3a, 3-(2-Chloro-8-ethylquinolin-3-yl)-1-(4-methoxyphenyl)prop-2-en-1-one] | 26.9% | < 10% | 16.8% | 22.1% | < 10% | < 10% | 27.3% | 79.9% | 21.1% | < 10% | < 10% | < 10% | < 10% | < 10% | < 10% | < 10% | 17.9% | 11.3% | < 10% | < 10% | inhibition at 10 µM (MDA-MB-435 (melanoma)): < 10%; inhibition at 10 µM (SK-MEL-2 (melanoma)): < 10%; inhibition at 10 µM (SK-MEL-5 (melanoma)): < 10%; inhibition at 10 µM (OVCAR-3 (ovarian cancer)): < 10%; inhibition at 10 µM (OVCAR-5 (ovarian cancer)): < 10%; inhibition at 10 µM (OVCAR-8 (ovarian cancer)): < 10%; inhibition at 10 µM [6]: < 10%; inhibition at 10 µM (786-0 (renal cancer)): < 10%; inhibition at 10 µM (ACHN (renal cancer)): < 10%; inhibition at 10 µM (RXF 393 (renal cancer)): 23.8%; inhibition at 10 µM (SN12C (renal cancer)): < 10%; inhibition at 10 µM [7]: < 10%; inhibition at 10 µM (HS 578T (breast cancer)): < 10%; inhibition at 10 µM (BT-549 (breast cancer)): 22.5%
CCc1cccc2cc(C=CC(=O)c3ccc(OC)c(OC)c3)c(Cl)nc12 [Compound 3b, 3-(2-Chloro-8-ethylquinolin-3-yl)-1-(3,4-dimethoxyphenyl)prop-2-en-1-one] | 65% | 55.7% | 49.2% | 56.2% | 43.5% | < 10% | 27.4% | > 100% | 41.5% | 22.4% | 17.7% | 72.2% | < 10% | 21.8% | 54.4% | > 100% | 65.2% | 43.4% | < 10% | < 10% | growth inhibition (GI%) [4]: lethal effect; inhibition at 10 µM (MDA-MB-435 (melanoma)): 17.1%; inhibition at 10 µM (SK-MEL-2 (melanoma)): < 10%; inhibition at 10 µM (SK-MEL-5 (melanoma)): 23.2%; inhibition at 10 µM (OVCAR-3 (ovarian cancer)): 31.7%; inhibition at 10 µM (OVCAR-5 (ovarian cancer)): 12.5%; inhibition at 10 µM (OVCAR-8 (ovarian cancer)): 57.8%; inhibition at 10 µM [6]: 45.8%; inhibition at 10 µM (786-0 (renal cancer)): 25.7%; inhibition at 10 µM (ACHN (renal cancer)): 24.5%; inhibition at 10 µM (RXF 393 (renal cancer)): 22.1%; inhibition at 10 µM (SN12C (renal cancer)): 23.7%; inhibition at 10 µM [7]: 29.3%; inhibition at 10 µM (HS 578T (breast cancer)): < 10%; inhibition at 10 µM (BT-549 (breast cancer)): 50.3%
CCc1cccc2cc(C=CC(=O)c3cc(OC)c(OC)c(OC)c3)c(Cl)nc12 [Compound 3c, 3-(2-Chloro-8-ethylquinolin-3-yl)-1-(3,4,5-trimethoxyphenyl)prop-2-en-1-one] | 87.8% | 68.1% | 49.9% | 78.2% | 52.1% | < 10% | 26.8% | > 100% | 80.7% | 18.4% | 63.8% | 65.4% | 32.2% | 31.3% | 66.4% | 61.7% | 78.2% | 72% | 14.8% | 31.9% | inhibition at 10 µM (MDA-MB-435 (melanoma)): 59.2%; inhibition at 10 µM (SK-MEL-2 (melanoma)): 44.5%; inhibition at 10 µM (SK-MEL-5 (melanoma)): 39.9%; inhibition at 10 µM (OVCAR-3 (ovarian cancer)): > 100%; inhibition at 10 µM (OVCAR-5 (ovarian cancer)): 26.8%; inhibition at 10 µM (OVCAR-8 (ovarian cancer)): 84%; inhibition at 10 µM [6]: 67.6%; inhibition at 10 µM (786-0 (renal cancer)): 41.7%; inhibition at 10 µM (ACHN (renal cancer)): 32%; inhibition at 10 µM (RXF 393 (renal cancer)): 42.6%; inhibition at 10 µM (SN12C (renal cancer)): 42.3%; inhibition at 10 µM [7]: 39.5%; inhibition at 10 µM (HS 578T (breast cancer)): < 10%; inhibition at 10 µM (BT-549 (breast cancer)): 76.1%

Source: article PMC11240139, “Exploring the antitumor potential of novel quinoline derivatives via tubulin polymerization inhibition in breast cancer; design, synthesis and molecular docking” (RSC Advances, 2024)
